Data taken from the supplement of paper PMC8617591.

How the values were obtained:
[1] = tested on: Mycobacterium tuberculosis Erdman (autoluminescent); assay: total FIC50 (Loewe) at 50% inhibition, three-drug combination (log2); higher = more antagonistic
Description: (§1)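 DiaMOND equipotent three-drug combination dose responses (10 doses, 1.5- or 2-fold spacing, centred on IC90) against autoluminescent M. tuberculosis Erdman in 8 in vitro models. Read-out is OD600, or luminescence for the intracellular and dormancy models, normalised to untreated wells. Hill-fit Einf, AUC25 and GRinf are potency metrics; FIC50 and FIC90 are total Loewe fractional inhibitory concentrations as log2 (negative = synergy).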

[2] = tested on: Mycobacterium tuberculosis Erdman (autoluminescent); assay: total FIC90 (Loewe) at 90% inhibition, three-drug combination (log2); higher = more antagonistic
Description: as §1

[3] = tested on: Mycobacterium tuberculosis Erdman (autoluminescent); assay: Einf, fitted maximum growth inhibition of three-drug combination (fraction); higher = stronger maximal inhibition
Description: as §1

[4] = tested on: Mycobacterium tuberculosis Erdman (autoluminescent); assay: AUC25, normalised area under dose response up to IC25 (three-drug combination) (fraction (0-1)); higher = more potent at low dose
Description: as §1

[5] = tested on: Mycobacterium tuberculosis Erdman (autoluminescent); assay: GRinf, maximum normalised growth rate inhibition (three-drug combination) (unitless (-1 to 1)); higher = less effect (negative = killing)
Description: as §1

[6] = in vitro model: acidic pH 5.7, time point: constant (~7 days, model-specific)
[7] = in vitro model: acidic pH 5.7, time point: terminal (~4-5 doublings, model-specific)
[8] = in vitro model: butyrate, time point: constant (~7 days, model-specific)
[9] = in vitro model: butyrate, time point: terminal (~4-5 doublings, model-specific)
[10] = in vitro model: cholesterol 0.05 mM, time point: constant (~7 days, model-specific)
[11] = in vitro model: cholesterol 0.05 mM, time point: terminal (~4-5 doublings, model-specific)
[12] = in vitro model: cholesterol-high 0.2 mM, time point: constant (~7 days, model-specific)
[13] = in vitro model: cholesterol-high 0.2 mM, time point: terminal (~4-5 doublings, model-specific)
[14] = in vitro model: dormancy (butyrate + nitrate, low O2), time point: constant (~7 days, model-specific)
[15] = in vitro model: dormancy (butyrate + nitrate, low O2), time point: terminal (~4-5 doublings, model-specific)
[16] = in vitro model: standard 7H9 glycerol, time point: constant = terminal
[17] = in vitro model: valerate, time point: constant (~7 days, model-specific)
[18] = in vitro model: valerate, time point: terminal (~4-5 doublings, model-specific)
[19] = in vitro model: intracellular J774, time point: constant = terminal

`COc1nc2ccc(Br)cc2cc1[C@@H](c1ccccc1)[C@@](O)(CCN(C)C)c1cccc2ccccc12` [bedaquiline] + CC(C)/N=c1\cc2n(-c3ccc(Cl)cc3)c3ccccc3nc-2cc1Nc1ccc(Cl)cc1 [clofazimine] + O=[N+]([O-])c1cn2c(n1)OC[C@@H](OCc1ccc(OC(F)(F)F)cc1)C2 [pretomanid] was tested, and the “total FIC50” value [1, 6] was 0.502, the “total FIC50” value [1, 7] was 0.438 and the “total FIC50” value [1, 8] was 0.0794. The “total FIC50” value [1, 9] was 0.0162, the “total FIC50” value [1, 10] was 0.099 and the “total FIC50” value [1, 11] was 0.567. For the same compound, the “total FIC50” value [1, 12] was 0.161, the “total FIC50” value [1, 13] was 0.209 and the “total FIC50” value [1, 14] was -0.378. For the same compound, the “total FIC50” value [1, 15] was -1.08, the “total FIC50” value [1, 16] was -0.29 and the “total FIC50” value [1, 17] was 0.482. For the same compound, the “total FIC50” value [1, 18] was 0.323, the “total FIC90” value [2, 7] was 0.703 and the “total FIC90” value [2, 8] was -0.148. For the same compound, the “total FIC90” value [2, 9] was -0.232, the “total FIC90” value [2, 11] was 0.307 and the “total FIC90” value [2, 12] was 0.852. For the same compound, the “total FIC90” value [2, 13] was 0.0625, the “total FIC90” value [2, 14] was -1.22 and the “total FIC90” value [2, 15] was -1.15. The “total FIC90” value [2, 19] was 0.235, the “total FIC90” value [2, 16] was -0.495 and the “total FIC90” value [2, 17] was -0.269. The “total FIC90” value [2, 18] was 0.514, the Einf [3, 6] was 0.809 and the Einf [3, 7] was 0.968. The Einf [3, 8] was 0.948, the Einf [3, 9] was 0.982 and the Einf [3, 10] was 0.724. It also gave an Einf [3, 11] of 0.938, an Einf [3, 12] of 0.94 and an Einf [3, 13] of 1. The Einf [3, 14] was 0.942, the Einf [3, 15] was 0.996 and the Einf [3, 19] was 0.986. It also gave an Einf [3, 16] of 0.967, an Einf [3, 17] of 0.91 and an Einf [3, 18] of 0.954. It also gave an AUC25 [4, 6] of 0.106, an AUC25 [4, 7] of 0.0881 and an AUC25 [4, 8] of 0.0748. For the same compound, the AUC25 [4, 9] was 0.0598, the AUC25 [4, 10] was 0.101 and the AUC25 [4, 11] was 0.111. For the same compound, the AUC25 [4, 12] was 0.0786, the AUC25 [4, 13] was 0.0851 and the AUC25 [4, 14] was 0.0645. The AUC25 [4, 15] was 0.077, the AUC25 [4, 16] was 0.0956 and the AUC25 [4, 17] was 0.119. For the same compound, the AUC25 [4, 18] was 0.0785, the GRinf [5, 6] was -0.477 and the GRinf [5, 7] was -0.411. It also gave a GRinf [5, 8] of -0.105, a GRinf [5, 9] of -0.123 and a GRinf [5, 10] of -0.148. The GRinf [5, 11] was -0.208, the GRinf [5, 12] was -0.226 and the GRinf [5, 13] was -0.559. It also gave a GRinf [5, 14] of 0.201, a GRinf [5, 15] of -0.219 and a GRinf [5, 19] of -0.307. For the same compound, the GRinf [5, 16] was -0.0799, the GRinf [5, 17] was -0.0979 and the GRinf [5, 18] was -0.0498.
`COc1nc2ccc(Br)cc2cc1[C@@H](c1ccccc1)[C@@](O)(CCN(C)C)c1cccc2ccccc12` [bedaquiline] + CC[C@@H](CO)NCCN[C@@H](CC)CO [ethambutol] + CC(=O)NC[C@H]1CN(c2ccc(N3CCOCC3)c(F)c2)C(=O)O1 [linezolid] was tested, and the “total FIC50” value [1, 6] was -0.0157, the “total FIC50” value [1, 7] was 0.509 and the “total FIC50” value [1, 8] was 0.429. For the same compound, the “total FIC50” value [1, 9] was 0.371, the “total FIC50” value [1, 10] was 0.52 and the “total FIC50” value [1, 11] was 8.47. For the same compound, the “total FIC50” value [1, 12] was 0.98, the “total FIC50” value [1, 13] was 0.45 and the “total FIC50” value [1, 14] was 1.37. The “total FIC50” value [1, 15] was 0.241, the “total FIC50” value [1, 16] was 0.387 and the “total FIC50” value [1, 17] was 0.715. The “total FIC50” value [1, 18] was 0.85, the “total FIC90” value [2, 7] was 0.711 and the “total FIC90” value [2, 9] was -0.223. For the same compound, the “total FIC90” value [2, 13] was 1.37, the “total FIC90” value [2, 15] was 0.872 and the “total FIC90” value [2, 19] was 0.819. The “total FIC90” value [2, 18] was -0.19, the Einf [3, 6] was 0.822 and the Einf [3, 7] was 0.977. It also gave an Einf [3, 8] of 0.931, an Einf [3, 9] of 0.964 and an Einf [3, 10] of 0.783. The Einf [3, 11] was 0.946, the Einf [3, 12] was 0.984 and the Einf [3, 13] was 1. For the same compound, the Einf [3, 14] was 0.886, the Einf [3, 15] was 0.989 and the Einf [3, 19] was 0.922. It also gave an Einf [3, 16] of 0.943, an Einf [3, 17] of 0.915 and an Einf [3, 18] of 0.954. It also gave an AUC25 [4, 6] of 0.0748, an AUC25 [4, 7] of 0.0941 and an AUC25 [4, 8] of 0.0774. The AUC25 [4, 9] was 0.0539, the AUC25 [4, 10] was 0.151 and the AUC25 [4, 11] was 0.159. It also gave an AUC25 [4, 12] of 0.0976, an AUC25 [4, 13] of 0.114 and an AUC25 [4, 14] of 0.124. It also gave an AUC25 [4, 15] of 0.127, an AUC25 [4, 16] of 0.0754 and an AUC25 [4, 17] of 0.106. For the same compound, the AUC25 [4, 18] was 0.0559, the GRinf [5, 6] was -0.403 and the GRinf [5, 7] was -0.395. The GRinf [5, 8] was -0.0747, the GRinf [5, 9] was -0.0521 and the GRinf [5, 10] was -0.458. It also gave a GRinf [5, 11] of -0.703, a GRinf [5, 12] of -1 and a GRinf [5, 13] of -0.946. For the same compound, the GRinf [5, 14] was 0.486, the GRinf [5, 15] was -0.414 and the GRinf [5, 19] was -0.379. The GRinf [5, 16] was -0.0326, the GRinf [5, 17] was -0.161 and the GRinf [5, 18] was -0.121.
With `COc1nc2ccc(Br)cc2cc1[C@@H](c1ccccc1)[C@@](O)(CCN(C)C)c1cccc2ccccc12` [bedaquiline] + CC[C@@H](CO)NCCN[C@@H](CC)CO [ethambutol] + CO[C@H]1/C=C/O[C@@]2(C)Oc3c(C)c(O)c4c(O)c(c(/C=N/N5CCN(C6CCCC6)CC5)c(O)c4c3C2=O)NC(=O)/C(C)=C\C=C\[C@H](C)[C@H](O)[C@@H](C)[C@@H](O)[C@@H](C)[C@H](OC(C)=O)[C@@H]1C [rifapentine] the “total FIC50” value [1, 6] was -0.16, the “total FIC50” value [1, 7] was 0.232 and the “total FIC50” value [1, 8] was 0.486. The “total FIC50” value [1, 9] was 0.432, the “total FIC50” value [1, 10] was 0.896 and the “total FIC50” value [1, 11] was 1. The “total FIC50” value [1, 12] was 1.12, the “total FIC50” value [1, 13] was 1.03 and the “total FIC50” value [1, 14] was 1.06. The “total FIC50” value [1, 15] was 0.39, the “total FIC50” value [1, 16] was 0.213 and the “total FIC50” value [1, 17] was 0.793. For the same compound, the “total FIC50” value [1, 18] was 0.823, the “total FIC90” value [2, 7] was -0.455 and the “total FIC90” value [2, 9] was -0.198. For the same compound, the “total FIC90” value [2, 13] was 1.09, the “total FIC90” value [2, 15] was 0.33 and the “total FIC90” value [2, 19] was -1.85. The “total FIC90” value [2, 18] was -0.0548, the Einf [3, 6] was 0.961 and the Einf [3, 7] was 0.98. The Einf [3, 8] was 0.935, the Einf [3, 9] was 0.972 and the Einf [3, 10] was 0.7. For the same compound, the Einf [3, 11] was 0.896, the Einf [3, 12] was 0.996 and the Einf [3, 13] was 0.998. It also gave an Einf [3, 14] of 0.891, an Einf [3, 15] of 0.982 and an Einf [3, 19] of 0.947. It also gave an Einf [3, 16] of 0.931, an Einf [3, 17] of 0.887 and an Einf [3, 18] of 0.948. The AUC25 [4, 6] was 0.114, the AUC25 [4, 7] was 0.0469 and the AUC25 [4, 8] was 0.0669. It also gave an AUC25 [4, 9] of 0.0551, an AUC25 [4, 10] of 0.0736 and an AUC25 [4, 11] of 0.0689. For the same compound, the AUC25 [4, 12] was 0.0263, the AUC25 [4, 13] was 0.0449 and the AUC25 [4, 14] was 0.125. The AUC25 [4, 15] was 0.105, the AUC25 [4, 16] was 0.0577 and the AUC25 [4, 17] was 0.0547. The AUC25 [4, 18] was 0.0403, the GRinf [5, 6] was -0.423 and the GRinf [5, 7] was -0.179. The GRinf [5, 8] was -0.0718, the GRinf [5, 9] was -0.0579 and the GRinf [5, 10] was -0.229. The GRinf [5, 11] was -0.175, the GRinf [5, 12] was -0.736 and the GRinf [5, 13] was -0.697. It also gave a GRinf [5, 14] of 0.428, a GRinf [5, 15] of -0.0507 and a GRinf [5, 19] of -0.165. It also gave a GRinf [5, 16] of 0.00717, a GRinf [5, 17] of -0.0669 and a GRinf [5, 18] of -0.0709.
